Test results published in patent US20230021448A1, “COMPOUNDS AND COMPOSITIONS FOR TREATING CONDITIONS ASSOCIATED WITH STING ACTIVITY” (IFM Due, Inc., priority 2019, published 2023).
pEC50: −log10 of the molar value.

Target: T1, STING (Homo sapiens, UniProt Q86WV6, G230A/H232R/R293Q/R71H)
T1 construct: host or cells: THP1-Dual KO-IFNAR2 cells
Assay: STING reporter assay: luciferase reporter activity in THP1-Dual KO-IFNAR2 cells stimulated with 2'3'cGAMP
Type: cell-based
Details: 2′3′cGAMP 15 μM final, 24h, read-out: hSTING: EC50
Outline: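 THP1-Dual KO-IFNAR2 cells (2×10E6 cells/mL) incubated with compounds at 0.0017-100 μM final plus Lipofectamine-transfected 2′3′cGAMP (15 μM final), 24 h at 37 °C, 5% CO2. Luciferase in supernatant read by QUANTI-Luc luminescence; EC50 derived.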

T1 sequence (Q86WV6 whole entry R71H/G230A/H232R/R293Q): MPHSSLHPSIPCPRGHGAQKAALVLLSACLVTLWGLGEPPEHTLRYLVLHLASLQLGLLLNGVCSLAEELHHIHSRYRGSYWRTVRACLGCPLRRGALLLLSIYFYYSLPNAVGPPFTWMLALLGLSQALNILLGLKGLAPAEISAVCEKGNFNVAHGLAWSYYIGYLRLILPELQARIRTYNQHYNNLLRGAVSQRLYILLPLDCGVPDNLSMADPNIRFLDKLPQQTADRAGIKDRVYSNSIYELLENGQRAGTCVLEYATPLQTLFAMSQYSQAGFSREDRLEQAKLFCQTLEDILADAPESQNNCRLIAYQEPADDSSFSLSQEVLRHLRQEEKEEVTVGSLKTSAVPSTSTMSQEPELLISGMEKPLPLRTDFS

| Structure (SMILES) | pEC50 |
| --- | --- |
| O=C(Nc1c[nH]c2cc(F)c(F)cc12)C(=O)N[C@H]1CC[C@H](Nc2ccccn2)CC1 [Compound 202, N-(5,6-difluoro-1H-indol-3-yl)-N′-[trans-4-(pyridin-2-ylamino)cyclohexyl]ethanediamide] | 4.00 to 5.30 |
| O=C(NCC(=O)N1CCc2cccnc21)C(=O)Nc1c[nH]c2cc(F)c(F)cc12 [Compound 203] | 6.00 to 6.70 |
| O=C(NCC(=O)N1CCc2ccc(C(F)(F)F)cc21)C(=O)Nc1c[nH]c2cc(F)c(F)cc12 [Compound 204] | 6.70 to 7.40 |
| O=C(Nc1c[nH]c2cc(F)c(F)cc12)C(=O)NC1CC2CCC(C1)C2Oc1ccc(C(F)(F)F)cc1 (stereo not drawn) [Compound 205] | 5.30 to 6.00 |
| CC(C)(CO)CCCN1CCN(C(=O)C(=O)Nc2c[nH]c3cc(F)c(F)cc23)CC1 [Compound 206] | 4.00 to 5.30 |
| O=C(Nc1c[nH]c2ccc(Cl)cc12)C(=O)N[C@H]1C[C@H](Nc2ccccn2)C1 [Compound 208] | 5.30 to 6.00 |
| O=C(Nc1c[nH]c2cc(F)c(Cl)cc12)C(=O)N[C@H]1CC[C@H](Oc2ccc(C(F)(F)F)cn2)CC1 [Compound 209, N-(5-chloro-6-fluoro-1H-indol-3-yl)-N′-(trans-4-((5-(trifluoromethyl)pyridin-2-yl)oxy)cyclohexyl)oxalamide] | 6.00 to 6.70 |
| O=C(Nc1c[nH]c2cc(F)c(F)cc12)C(=O)N[C@H]1C[C@H](Oc2ccc(C(F)(F)F)cn2)C1 [Compound 210] | 6.00 to 6.70 |
| O=C(Nc1c[nH]c2cc(F)c(F)cc12)C(=O)N[C@H]1CC[C@H](NCC(F)(F)F)CC1 [Compound 211] | 5.30 to 6.00 |
| O=C(Nc1c[nH]c2ccc(Cl)cc12)C(=O)N[C@H]1C[C@H](Oc2ccccn2)C1 [Compound 212] | 6.00 to 6.70 |
| O=C(Nc1c[nH]c2ccc(Cl)cc12)C(=O)N[C@H]1CC[C@H](Oc2ccc(C(F)(F)F)cc2)CC1 [Compound 213, N-(5-chloro-1H-indol-3-yl)-N′-(trans-4-(4-(trifluoromethyl)phenoxy)cyclohexyl)oxalamide] | 6.70 to 7.40 |
| N#Cc1cc(F)c2[nH]cc(NC(=O)C(=O)NCc3ccc(C(F)(F)F)c(Cl)c3)c2c1 [Compound 215] | 6.00 to 6.70 |
| O=C(Nc1c[nH]c2cc(F)c(F)cc12)C(=O)N1CCN(CCc2ccc(C(F)(F)F)cc2)CC1 [Compound 216] | 5.30 to 6.00 |
| O=C(Nc1c[nH]c2cc(F)c(F)cc12)C(=O)NC1CCC(Oc2ccc(C(F)(F)F)cc2)C1 (stereo not drawn) [Compound 217] | 6.00 to 6.70 |
| O=C(Nc1c[nH]c2cc(F)c(F)cc12)C(=O)NC1CC(Oc2ccc(C(F)(F)F)cc2)C1 (stereo not drawn) [Compound 218] | 6.00 to 6.70 |
| CN1CCOc2cc(NC(=O)C(=O)Nc3c[nH]c4cc(F)c(F)cc34)cnc21 [Compound 219] | 5.30 to 6.00 |
| O=C(Nc1c[nH]c2cc(F)c(F)cc12)C(=O)NC1CCC(Oc2ccc(C(F)(F)F)cn2)C1 (stereo not drawn) [Compound 221] | 6.00 to 6.70 |

| Structure (SMILES) | pEC50 |
| --- | --- |
| O=C(Nc1c[nH]c2cc(F)c(F)cc12)C(=O)N[C@H]1CC[C@@H](Oc2ccc(C(F)(F)F)nc2)CC1 [Compound 222] | 6.00 to 6.70 |
| O=C(Nc1c[nH]c2cc(F)c(F)cc12)C(=O)N[C@H]1CC[C@H](Oc2ccc(C(F)(F)F)nc2)CC1 [Compound 223, N-(5,6-difluoro-1H-indol-3-yl)-N′-[trans-4-[[6-(trifluoromethyl)pyridin-3-yl]oxy]cyclohexyl]ethanediamide] | 6.00 to 6.70 |
| O=C(Nc1c[nH]c2cc(F)c(F)cc12)C(=O)NC1CCC(Oc2ccc(C(F)(F)F)nc2)CC1 (stereo not drawn) [Compound 224] | 6.70 to 7.40 |
| O=C(Nc1c[nH]c2cc(F)ccc12)C(=O)NC1CCC(Oc2ccc(C(F)(F)F)cn2)CC1 (stereo not drawn) [Compound 225, N-(6-fluoro-1H-indol-3-yl)-N′-(4-((5-(trifluoromethyl)pyridin-2-yl)oxy)cyclohexyl)oxalamide] | 6.70 to 7.40 |
| O=C(Nc1c[nH]c2cc(F)c(F)cc12)C(=O)NC1CC(Oc2ccc(C(F)(F)F)cn2)C1 (stereo not drawn) [Compound 226] | 6.70 to 7.40 |
| O=C(Nc1c[nH]c2cc(F)c(F)cc12)C(=O)N[C@H]1CC[C@@H](Oc2ccc(C(F)(F)F)cn2)CC1 [Compound 229] | 5.30 to 6.00 |
| O=C(Nc1c[nH]c2cc(F)c(F)cc12)C(=O)N[C@H]1CC[C@H](Oc2ccc(C(F)(F)F)cn2)CC1 [Compound 230, N-(5,6-difluoro-1H-indol-3-yl)-N′-[trans-4-[[5-(trifluoromethyl)pyridin-2-yl]oxy]cyclohexyl]ethanediamide] | 6.70 to 7.40 |
| N#Cc1cc(NC(=O)C(=O)Nc2c[nH]c3cc(F)c(F)cc23)cnc1N1CCCC1 [Compound 231] | 6.00 to 6.70 |
| Cc1cc(NC(=O)C(=O)Nc2c[nH]c3cc(F)c(-c4cnn(C)c4)cc23)cnc1N1CCC(F)(F)CC1 [Compound 232] | 5.30 to 6.00 |
| O=C(Nc1c[nH]c2cc(F)c(F)cc12)C(=O)N[C@H]1CCCC(Oc2ccc(C(F)(F)F)cc2)C1 (stereo partly drawn) [Compound 233] | 6.00 to 6.70 |
| O=C(Nc1c[nH]c2cc(F)c(F)cc12)C(=O)N[C@@H]1CCCC(Oc2ccc(C(F)(F)F)cc2)C1 (stereo partly drawn) [Compound 234] | 6.00 to 6.70 |
| O=C(Nc1cnc(-n2nccn2)c(C(F)(F)F)c1)C(=O)Nc1c[nH]c2cc(F)c(F)cc12 [Compound 238, N1-(6-(2H-1,2,3-triazol-2-yl)-5-(trifluoromethyl)pyridin-3-yl)-N2-(5,6-difluoro-1H-indol-3-yl)oxalamide] | 5.30 to 6.00 |
| O=C(Nc1c[nH]c2cc(F)c(F)cc12)C(=O)N1CCN(c2ccc(CC(F)(F)F)cn2)CC1 [Compound 241] | 6.00 to 6.70 |
| Cc1ccc(CNC(=O)C(=O)Nc2c[nH]c3cc(F)c(F)c(Br)c23)cc1C(F)(F)F [Compound 242] | 4.00 to 5.30 |
| O=C(Nc1c[nH]c2cc(F)c(F)cc12)C(=O)N[C@H]1CC[C@@H](Oc2ccc(C(F)(F)F)cc2)CC1 [Compound 249] | 5.30 to 6.00 |
| O=C(Nc1c[nH]c2cc(F)c(F)cc12)C(=O)N[C@H]1CC[C@H](Oc2ccc(C(F)(F)F)cc2)CC1 [Compound 250, N-(5,6-difluoro-1H-indol-3-yl)-N′-(trans-4-(4-(trifluoromethyl)phenoxy)cyclohexyl)oxalamide] | 6.70 to 7.40 |
| O=C(Nc1c[nH]c2cc(F)c(F)cc12)C(=O)N1CCC(Cc2ccc(C(F)(F)F)cc2)CC1 [Compound 251] | 5.30 to 6.00 |

Now from value to compound:

| pEC50 | Structure (SMILES) |
| --- | --- |
| 5.30 to 6.00 | O=C(Nc1c[nH]c2cc(F)c(F)cc12)C(=O)N1CCC2(CCCCC2)CC1 [Compound 252] |
| 6.00 to 6.70 | O=C(Nc1c[nH]c2cc(F)c(F)cc12)C(=O)N1CCN(Cc2ccc(C(F)(F)F)cc2)CC1 [Compound 253] |
| 6.00 to 6.70 | Cc1ccccc1N1C2CCC1CC(NC(=O)C(=O)Nc1c[nH]c3cc(F)c(F)cc13)C2 (stereo not drawn) [Compound 254] |
| 4.00 to 5.30 | O=C(Nc1c[nH]c2cc(F)c(F)cc12)C(=O)NC1CCC(Oc2ccc(C(F)(F)F)cn2)CC1 (stereo not drawn) [Compound 255] |
| 5.30 to 6.00 | O=C(Nc1c[nH]c2cc(F)c(F)cc12)C(=O)NC1CCN(Cc2ccccc2)C2(CCCCC2)C1 (stereo not drawn) [Compound 256] |
| 6.00 to 6.70 | O=C(NCC1COc2ccccc2O1)C(=O)Nc1c[nH]c2cc(F)c(F)cc12 (stereo not drawn) [Compound 261, N-(5,6-difluoro-1H-indol-3-yl)-N′-[(2,3-dihydro-1,4-benzodioxin-2-yl)methyl] ethanediamide] |
| 6.00 to 6.70 | O=C(Nc1ccc2c(cnn2Cc2cccc(F)c2)c1)C(=O)Nc1c[nH]c2cc(F)c(F)cc12 [Compound 262, N-(5,6-difluoro-1H-indol-3-yl)-N′-{1-[(3-fluorophenyl)methyl]-1H-indazol-5-yl}ethanediamide] |
| 6.00 to 6.70 | O=C(Nc1ccc(C(F)(F)F)cc1)C(=O)Nc1c[nH]c2ccc(I)cc12 [Compound 263] |
| 6.00 to 6.70 | O=C(Nc1c[nH]c2cc(F)c(F)cc12)C(=O)N[C@H]1CCN(c2ccc(C(F)(F)F)cn2)C1 [Compound 264, (S)-N-(5,6-difluoro-1H-indol-3-yl)-N′-(1-(5-(trifluoromethyl)pyridin-2-yl)pyrrolidin-3-yl)oxalamide] |
| 5.30 to 6.00 | O=C(Nc1ccc(-n2cncn2)c(Cl)c1)C(=O)Nc1c[nH]c2cc(F)c(F)cc12 [Compound 265, N′-[3-chloro-4-(1H-1,2,4-triazol-1-yl)phenyl]-N-(5,6-difluoro-1H-indol-3-yl)ethanediamide] |
| 6.00 to 6.70 | CN1CCOc2cc(NC(=O)C(=O)Nc3c[nH]c4cc(F)c(F)cc34)ccc21 [Compound 266, N-(5,6-difluoro-1H-indol-3-yl)-N′-(4-methyl-3,4-dihydro-2H-1,4-benzoxazin-7-yl)ethanediamide] |
| 6.00 to 6.70 | CC(C)(C)OC(=O)N1CC2CC(NC(=O)C(=O)Nc3c[nH]c4cc(F)c(F)cc34)CC2C1 (stereo not drawn) [Compound 267, tert-butyl 5-{[(5,6-difluoro-1H-indol-3-yl)carbamoyl] formamido}-octahydrocyclopenta[c] pyrrole-2-carboxylate] |
| 6.00 to 6.70 | O=C(Nc1ccc2c(c1)CCCC2=O)C(=O)Nc1c[nH]c2cc(F)c(F)cc12 [Compound 268, N-(5,6-difluoro-1H-indol-3-yl)-N′-(5-oxo-5,6,7,8-tetrahydro-naphthalen-2-yl)ethanediamide] |
| 6.00 to 6.70 | O=C(NCCc1ccc(C(F)(F)F)cn1)C(=O)Nc1c[nH]c2cc(F)c(F)cc12 [Compound 269, N-(5,6-difluoro-1H-indol-3-yl)-N′-{2-[5-(trifluoromethyl)pyridin-2-yl]ethyl}ethanediamide] |
| 6.00 to 6.70 | N#Cc1ccc(OC2CCC(NC(=O)C(=O)Nc3c[nH]c4cc(F)c(F)cc34)CC2)cc1 (stereo not drawn) [Compound 270, N′-[4-(4-cyanophenoxy)cyclohexyl]-N-(5,6-difluoro-1H-indol-3-yl)ethanediamide] |
| 5.30 to 6.00 | CC(C)(C)OC(=O)N1CCC2(CC1)CC(NC(=O)C(=O)Nc1c[nH]c3cc(F)c(F)cc13)CO2 (stereo not drawn) [Compound 271, tert-butyl 3-{[(5,6-difluoro-1H-indol-3-yl)carbamoyl] formamido}-1-oxa-8-azaspiro[4.5]decane-8-carboxylate] |
| 6.00 to 6.70 | COc1ccc(Oc2ccc(NC(=O)C(=O)Nc3c[nH]c4cc(F)c(F)cc34)cc2C)cn1 [Compound 272, N-(5,6-difluoro-1H-indol-3-yl)-N′-{4-[(6-methoxypyridin-3-yl)oxy]-3-methylphenyl} ethanediamide] |
